For 18 molecules, inhibition, responders and Ratio onset/duration results are on record in patent US4529736A, “3a-(substituted phenyl)-2,3,3a,4,7,7a-hexahydro[or 3a-(substituted-phenyl)octahydro]-4,7-alkano-1H-isoindoles for treating depression in warm-blooded animals” (American Cyanamid Company, priority 1983, dated 1985).

Counter-ions that a name gives are not always drawn. Like-named read-outs stand apart in the source and are kept apart here.

Test [1] deals with T1, [^3 H]-imipramine binding to human platelet membranes (Homo sapiens, UniProt P31645).
T1 construct: from tissue; host or cells: human platelets (sonicated, washed membranes)
In words: Platelet Imipramine Binding: inhibition of [^3 H]-imipramine binding to human platelet membranes. The following applies: 50 μl of 50 μM compound stock + 200 μl membrane/[^3 H]imipramine mixture; 60 minutes at 0° C.; 10 μM desmethylimipramine = 0% binding. How it is done:
The activity of the compounds of this invention as antidepressant agents was further verified in the following test which measures the ability of a test compound to inhibit [^3 H]-imipramine binding to human platelet membranes.
Human platelet concentrates were diluted 1:20 with antiprotease containing buffer of the following composition:
0.005N potassium chloride
3 mN ethylenediaminetetraacetic acid
1 mN ethyleneglycol-bis-(β-aminoethyl ether)-N,N'-tetraacetic acid
This buffer was kept at pH 6.8 to prevent platelet release and aggregation.
The diluted platelets were centrifuged at 2500 g and then resuspended in 50 volumes of the same buffer. The cells were then ruptured with a Branson sonicator while the suspension was maintained in an ice bath. The ruptured cells were then centrifuged at 18,000 g, resuspended in fresh buffer and recentrifuged at 18,000 g. These membranes were diluted with the above antiprotease buffer which had been adjusted to pH 7.4 and to a concentration of 3.0 mg/ml.
The test compounds were dissolved in dimethylsulfoxide at a concentration of 50 mM and then diluted 1:10 in either water, 0.1M hydrochloric acid or 0.1M sodium hydroxide. They were then diluted 1:100 in buffer to 50 μM, and 50 μl of this stock solution was placed in triplicate test tubes. The tubes were cooled to 0° C. and 200 μl of the following mixture were added:
100 μl of 3 mg/ml membrane in buffer
50 μl of 15 nM[^3 H]imipramine in buffer
The tubes were incubated for 60 minutes at 0° C. Controls contain either buffer alone (100%) of 10 μM of final desmethylimipramine (DMI) (0%).
The samples were diluted with 5 ml of buffer [0.12M-sodium chloride, 0.05M-tris buffer, 0.005M-potassium chloride (pH 7.4)], vacuum filtered and washed twice with 5 ml of buffer. Radioactivity was measured in a liquid scintillation counter and the degree of binding was calculated.

Test [2] has as its system tetrabenazine-induced ptosis. In words: Tetrabenazine Induced Ptosis (inhibition of ptosis). The class given is in vivo. The following applies: Mus musculus, read-out: % Mice Responding. How it is done:
The antidepressant activity of the compounds of this invention was further established in the following test. Inhibition of tetrabenazine-induced ptosis is observed concomitantly with the inhibition of tetrabenazine-induced depression. Ptosis is defined as more than 75% closure of palpebral aperture induced in animals by the administration of tetrabenazine methanesulfonate. The compounds were administered orally (P.O.) or intraperitoneally (I.P.) at 25 mg/kg to groups of 10 mice. Thirty minutes later, tetrabenazine methanesulfonate was administered intraperitoneally to each mouse at a dose of 39 mg/kg. Thirty minutes after the injection of tetrabenazine, the mice were placed on an observation disc and examined for 10 seconds for inhibition of ptosis. […]

The subject of test [3] is tetrabenazine-induced depression. Briefly: Tetrabenazine Induced Depression (exploratory behaviour). Type of test: in vivo. The following applies: Mus musculus, read-out: % Mice Protected. How it is done: The compounds of this invention are useful as antidepressant agents in warm-blooded animals as verified by the following test. The antidepressant properties of these compounds were tested by measuring their ability to counteract depression induced in animals by the administration of tetrabenazine methanesulfonate. Each test compound was administered orally (P.O.) or intraperitoneally (I.P.) to 10 mice at a dose of 25 mg/kg of body weight. Thirty minutes later, tetrabenazine methanesulfonate was administered intraperitoneally to each mouse at a dose of 39 mg/kg of body weight, which dose is known to depress markedly the exploratory behaviour of normal mice. Thirty minutes later the mice were tested for their exploratory behaviour as described by E. Greenblatt and A. C. Osterberg, Toxicology and Applied Pharmacology, 7, 566-578 (1965).

Test [4] concerns stress induced depressed ("coping") behavior. Briefly: Stress Induced Depressed Behavior Test. The class given is in vivo. The following applies: rats, intraperitoneally at 5-20 mg/kg; warm (44.5° C.) surface for 15 minutes; high ratio = active. How it is done: The compounds of this invention are active as antistress agents in warm-blooded animals as evidenced by their results when tested in the Stress Induced Depressed Behavior Test. In this test, rats were confined on a warm (44.5° C.), but aversive, surface for 15 minutes. After 5-6 minutes, control rats began to show episodes of depressed ("coping") behavior where they remained flat and immobile for short to long periods of time. The onset and total duration of this behavior was timed. A ratio of onset/duration was calculated. The test compounds were administered intraperitoneally at 5-20 mg/kg of body weight. Active compounds prolong the time of onset and shorten the duration time resulting in high ratios.

T1 sequence (P31645 whole entry): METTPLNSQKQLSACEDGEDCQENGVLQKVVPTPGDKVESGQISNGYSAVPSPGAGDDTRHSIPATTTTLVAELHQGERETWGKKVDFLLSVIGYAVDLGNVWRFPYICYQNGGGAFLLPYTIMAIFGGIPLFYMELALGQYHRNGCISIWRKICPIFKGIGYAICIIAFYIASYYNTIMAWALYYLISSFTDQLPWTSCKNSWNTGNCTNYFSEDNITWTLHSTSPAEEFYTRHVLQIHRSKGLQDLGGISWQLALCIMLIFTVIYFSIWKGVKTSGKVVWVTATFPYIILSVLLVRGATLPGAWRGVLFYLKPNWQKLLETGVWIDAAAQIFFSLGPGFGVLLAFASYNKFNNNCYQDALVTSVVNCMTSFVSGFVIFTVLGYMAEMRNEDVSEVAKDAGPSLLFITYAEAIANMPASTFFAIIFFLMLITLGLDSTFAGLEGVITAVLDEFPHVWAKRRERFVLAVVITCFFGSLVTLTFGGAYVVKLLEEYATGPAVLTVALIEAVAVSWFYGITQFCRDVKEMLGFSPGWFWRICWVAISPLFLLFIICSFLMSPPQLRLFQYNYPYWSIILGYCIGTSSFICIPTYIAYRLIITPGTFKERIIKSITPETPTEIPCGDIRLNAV

What is called inhibition is the relative decrease from the control value, in per cent. As for `Cc1ccc([C@@]23CN(C)C[C@@H]2[C@@H]2C=C[C@H]3C2)cc1` (relative stereo) [2,3,3a,4,7,7a-Hexahydro-2-methyl-3a-(4-methylphenyl)-4,7-methano-1H-isoindole maleate (1:1)], the inhibition at 10 µM in test [1] came to 98%. The responders at 25 mg/kg in test [2] (po) was 90%; in test [3] (ip), 80%.

`CN1C[C@@H]2[C@@H]3C=C[C@@H](C3)[C@]2(c2cccc(C(F)(F)F)c2)C1` (relative stereo) [2,3,3a,4,7,7a-Hexahydro-2-methyl-3a-[3-(trifluoromethyl)phenyl]-4,7-methano-1H-isoindole fumarate]: in test [1], the inhibition at 10 µM worked out at 91%. The responders at 25 mg/kg in test [2] (ip) was 100%; in test [3] (ip), 70%.

For `COc1cccc([C@@]23CN(C)C[C@@H]2[C@@H]2C=C[C@H]3C2)c1` (relative stereo) [2,3,3a,4,7,7a-Hexahydro-3a-(3-methoxyphenyl)-2-methyl-4,7-methano-1H-isoindole maleate (1:1)], the inhibition at 10 µM in test [1] is 86%. The responders at 25 mg/kg in test [2] (po) came out at 60%; in test [3] (po), 40%.

As for `Cc1ccc([C@@]23CNC[C@@H]2[C@@H]2C=C[C@H]3C2)cc1` (relative stereo) [2,3,3a,4,7,7a-Hexahydro-3a-(4-methylphenyl)-4,7-methano-1H-isoindole maleate (1:1)], the inhibition at 10 µM in test [1] was found to be 94%. Moreover, the responders at 25 mg/kg in test [2] (ip) is 60%.

For `CN1C[C@@H]2[C@@H]3C=C[C@@H](C3)[C@]2(c2cccc(O)c2)C1` (relative stereo) [3-(1,2,3,4,7,7a-Hexahydro-2-methyl-4,7-methano-3aH-isoindol-3a-yl)phenol], the inhibition at 10 µM in test [1] came to 86%. In addition, the figures for the responders at 25 mg/kg in test [2] (po) and in test [3] (po) were 100% and 60%, respectively.

Regarding `Clc1ccc([C@@]23CNC[C@@H]2[C@@H]2C=C[C@H]3C2)cc1` (relative stereo) [3-a-(4-Chlorophenyl)-2,3,3a,4,7,7a-hexahydro-4,7-methano-1H-isoindole fumarate], the inhibition at 10 µM in test [1] was 98%. Also, the results for the responders at 25 mg/kg in test [2] (po) and in test [3] (ip) were 80% and 60%, respectively.

Regarding `CCN1C[C@@H]2C3CCC(CC3)[C@]2(c2ccc(Cl)c(Cl)c2)C1` (relative stereo) [3a-(3,4-Dichlorophenyl)-2-ethyloctahydro-4,7-ethano-1H-isoindole fumarate (1:1)], the inhibition at 10 µM in test [1] came to 89%. Also, the Ratio onset/duration in test [4] is 66. Moreover, the responders at 25 mg/kg in test [2] (ip) is 100%; in test [3] (po) it was 50%.

Consider `CN1C[C@@H]2C3CCC(CC3)[C@]2(c2ccc(Cl)c(Cl)c2)C1` (relative stereo) [3a-(3,4-Dichlorophenyl)octahydro-2-methyl-4,7-ethano-1H-isoindole fumarate (1:1)], for which the inhibition at 10 µM in test [1] came out at 94%. Also, the Ratio onset/duration in test [4] is given as 83. Besides, the responders at 25 mg/kg in test [2] (ip) was determined as 90%; in test [3] (po), 50%.

In the case of `CN1C[C@@H]2[C@@H]3CC[C@@H](C3)[C@]2(c2ccc(Cl)c(Cl)c2)C1` (relative stereo) [3a-(3,4-Dichlorophenyl)octahydro-2-methyl-4,7-methano-1H-isoindole hydrochloride], the inhibition at 10 µM in test [1] came to 93%. The Ratio onset/duration in test [4] turned out to be 59. Besides, the responders at 25 mg/kg in test [2] (ip) came to 100%; in test [3] (ip), 60%.

`Clc1ccc([C@@]23CNC[C@@H]2[C@@H]2CC[C@H]3C2)cc1Cl` (relative stereo) [3a-(3,4-Dichlorophenyl)octahydro-4,7-methano-1H-isoindole hydrochloride]: the inhibition at 10 µM in test [1] was found to be 96%. In addition, the Ratio onset/duration in test [4] turned out to be 76. Besides, the responders at 25 mg/kg in test [2] (ip) came to 100%; in test [3] (po) it was 40%.

As for `CN1C[C@@H]2C3CCC(CC3)[C@]2(c2ccc(F)c(F)c2)C1` (relative stereo) [3a-(3,4-Difluorophenyl)octahydro-2-methyl-4,7-ethano-1H-isoindole fumarate (1:1)], in test [1], the inhibition at 10 µM is 100%.

`CN1C[C@@H]2[C@@H]3CC[C@@H](C3)[C@]2(c2ccc(F)c(F)c2)C1` (relative stereo) [3a-(3,4-Difluorophenyl)octahydro-2-methyl-4,7-methano-1H-isoindole fumarate (1:1)]: in test [1], the inhibition at 10 µM worked out at 95%. Also, the values for the responders at 25 mg/kg in test [2] (ip) and in test [3] (ip) were 70% and 50%, respectively.

`CN1C[C@@H]2[C@@H]3C=C[C@@H](C3)[C@]2(c2cccc(Cl)c2)C1` (relative stereo) [3a-(3-Chlorophenyl)2,3,3a,4,7,7a-hexahydro-2-methyl-4,7-methano-1H-isoindole fumarate (1:1)]: the inhibition at 10 µM in test [1] is 86%. Besides, the Ratio onset/duration in test [4] is recorded as 13. Moreover, the responders at 25 mg/kg in test [2] (ip) was found to be 100%; in test [3] (ip) it was 60%.

Regarding `C[N+]1(C)C[C@@H]2[C@@H]3CC[C@@H](C3)[C@]2(c2ccc(N=[N+]=[N-])cc2)C1` (relative stereo) [3a-(4-Azidophenyl)octahydro-2,2-dimethyl-4,7-methano-1H-isoindolium iodide], the inhibition at 10 µM in test [1] came out at 88%. Besides, the responders at 25 mg/kg in test [2] (po, P.O., 25 mg/kg, responders: 75% or greater opening of palpebral aperture) turned out to be 100%; in test [3] (po, P.O., 25 mg/kg, 10 mice, tetrabenazine methanesulfonate 39 mg/kg I.P.), 30%.

For `CN1C[C@@H]2[C@@H]3CC[C@@H](C3)[C@]2(c2ccc(N)cc2)C1` (relative stereo) [4-(1,2,3,4,5,6,7,7a-Octahydro-2-methyl-4,7-methano-3aH-isoindol-3a-yl)benzenamine fumarate (1:1)], in test [1], the inhibition at 10 µM is 80%. Moreover, the responders at 25 mg/kg in test [2] (ip) was 100%; in test [3] (ip), 50%.

As to `CN1C[C@@H]2[C@@H]3C=C[C@@H](C3)[C@]2(c2ccc(N)cc2)C1` (relative stereo) [4-(1,2,3,4,7,7a-Hexahydro-2-methyl-4,7-methano-3aH-isoindol-3a-yl)benzenamine fumarate (1:2)], the responders at 25 mg/kg in test [2] (ip) is 100%; in test [3] (po) it was 70%.

`CN1C[C@@H]2[C@@H]3CC[C@@H](C3)[C@]2(c2ccc([N+](=O)[O-])cc2)C1` (relative stereo) [Octahydro-2-methyl-3a-(4-nitrophenyl)-4,7-methano-1H-isoindole fumarate (1:1)]: the inhibition at 10 µM in test [1] turned out to be 66%. Further, the responders at 25 mg/kg in test [2] (ip) was 70%; in test [3] (ip) it was 30%.

`c1ccc([C@@]23CNC[C@@H]2[C@@H]2CC[C@H]3C2)cc1` (relative stereo) [Octahydro-3a-phenyl-4,7-methano-1H-isoindole fumarate]: in test [1], the inhibition at 10 µM is 98%. Moreover, the responders at 25 mg/kg in test [2] (ip) and in test [3] (ip) was 50% each time.
